Literature values, collected in US20070254835A1, “COMPOSITION AND METHOD FOR TREATING NEUROLOGICAL DISORDERS” (priority 2003, published 2007).
Blank lines part the entries; values can stand above or below the molecule they belong to.

Columns and labels:
DNA methyltransferase = settings: after incorporation at a site of methylation
[1] = sterile powder formulation stored at 2-8° C.
mammalian HDAC = settings: Yoshida et al. 1990
HDAC = settings: in words only; literature
MT-3 = settings: brain tissue

half life in vivo: short half life | tissue distribution (in vivo): excellent tissue distribution | effect on DNA methyltransferase (DNA methyltransferase): irreversible inactivation | time the drug is kept stable [1]: at least 2 years
Molecule: Nc1ncn([C@H]2C[C@H](O)[C@@H](CO)O2)c(=O)n1 [decitabine, 5-aza-2′-deoxycytidine]

Molecule: CC(/C=C/C(=O)NO)=C\[C@@H](C)C(=O)c1ccc(N(C)C)cc1 [TSA, trichostatin A]
inhibition of mammalian HDAC (mammalian HDAC): potent inhibitor

Molecule: depudecin
concentration at which HDAC is inhibited (HDAC): micromolar concentrations

Molecule: C/C=C1\NC(=O)[C@H]2CSSCC/C=C/[C@H](CC(=O)N[C@H](C(C)C)C(=O)N2)OC(=O)[C@H](C(C)C)NC1=O [Depsipeptide, depsipeptide]
concentration at which HDAC is inhibited (HDAC): micromolar concentrations

Molecule: O=C(/C=C/c1cccc(C(=O)NO)c1)NO [CBHA, m-carboxy-cinnamic acid bishydroxamic acid]
concentration at which HDAC is inhibited (HDAC): micromolar concentration or lower

Molecule: Nc1ncn([C@@H]2O[C@H](CO)[C@@H](O)[C@H]2O)c(=O)n1 [5-azacytidine]
MT-3 expression after treatment (MT-3): re-expression of MT-3
